According to patent publication US20250009716A1, “NOVEL INHIBITORS OF CLAUDIN-1 FOR THERAPEUTIC INTERVENTIONS” (BOARD OF REGENTS OF THE UNIVERSITY OF NEBRASKA, priority 2021, published 2025):
“Also recorded” adds a separate entry of the source.

Tests used:
[1] = tested on: claudin-1 overexpressing cells; test: Co-treatment with 5FU, inhibition of cell growth; type: cell-based; details: 16 in combination with 5-FU
From the text: Curve fitting analysis was done using four parametric logistic regression curve.
The CSC cells contribute to the generation of metastasis (16-19), and key CSC characteristics are highly relevant to metastasis, including invasive motility, and, resistance to apoptosis (20,21). […] Considering that chemoresistance is central to the CRC progression and metastasis, we further tested if adjuvant use of 16 with 5FU can have significant bearing upon these traits. Colon cancer cells were subjected to exogenous administration of 16 alone, or in combination with the 5-FU, the conventional anti-CRC drug. […] To further determine the mechanistic details the effect of 16 on association of claudin-1 and Src, SW480claudin-1 cells were treated with 16 or the vehicle and resultant cell lysate was subjected to Proximity ligation assay (PLA) or Co—IP.

[2] = Metabolic stability in mouse liver S9 fractions; type: in vitro ADME
Experimental: To determine the in vivo characteristics of this drug, a pharmacokinetic and tissue distribution study on 16 was performed. Following a single i.v. dose of 16 (1 mg/kg) in mice (C57B/16; n=5), serial blood samples were obtained at 0.08, 0.25, 0.75, 2, 4, 6, 8 and 24 hours after the injection and plasma samples were analyzed for 16 concentrations. Pharmacokinetic parameter values were obtained from the plasma concentration-time data using standard non-compartmental methods (WinNonlin, PharSight Corp). […] To assess the tissue distribution of 16, mice were sacrificed at 2, 8 and 24 hours after the i.v. administration of the drug. Measurable concentrations of 16 were detected in all studied tissues at 2, 8, and 24 h. […] Next, metabolic stability studies of 16 was evaluated using mouse liver S9 fractions for the in vitro assessment of phase I and II metabolism. […] Testosterone, 7-HC and diclofenac were used as positive controls, ensuring proper incubation conditions were maintained. […]
Metabolic stability and reaction phenotyping: The in vitro metabolic stability of studies was determined using mice and human liver microsomes and S9 fractions (XenoTech, LLC, Lenexa, KS, USA) following standard protocols (33, 35, 36). […] Drug concentrations were determined using LC-MS/MS. […] UGTs are analyzed in Corning® Supersomes™ if incubation of HLMs with UDPGA also results in metabolite formation.

[3] = tested on: Claudin-1 deficient HCT116 cells; test: Resistance to anoikis in claudin-1 deficient cells (negative control); type: cell-based
From the text: The crystal structure of claudin-1 is unknown. Therefore, an in-silico protein folding program, YASARA, was used to identify an effective claudin-1 inhibitor. The resultant 3D-structure was then modeled using Molegro Virtual Docker (MVD) software program. These in-silico analyses identified putative cavities in the claudin-1 protein that can be targeted by small molecule inhibitors. Next, a 100K library of small molecules was screened in silico using the MVD. The top 10 inhibitors that bound to the Site #3 (targeting near c-terminal domain; the most accessible pocket; FIG. 2A) with the best binding energies were selected as hits and used for further testing. Screening of these inhibitors named Inihibitor-1 (1-1) to Inhibitor-10 (I-10) was done using SW480claudin-1, SW620 and control cells. Claudin-1 deficient HCT116 cells (WT-APC) or SW620shRNAcld-1 were used as negative controls. Resistance to anoikis and cell invasion was used as biological end-points in testing these inhibitors. […]

SW480claudin-1 cells [4] = test: Cell survival (MTT assay) versus dasatinib; type: cell-based
Experimental: Effects on (A) phosphorylation of Src and EphA2 and (B) cell survival (MTT assay) were determined. Significant changes are boxed.

[5] = tested on: claudin-1 overexpressed patient-derived xenograft; test: Patient-derived xenograft (PDX) tumors; type: in vivo, nude mice; details: 5 mg/kg and 10 mg/kg
Experimental: Representative images of tumors from the vehicle and PDS-0330 (5 mg/kg and 10 mg/kg)-treated claudin-1 overexpressed PDX implanted nude mice.
Tumor volume was measured using calipers over time (n=5 mice per group). The formation of flank xenograft tumors in claudin-1 overexpressed PDX implanted nude mice was examined between vehicle and PDS-0330 (5 mg/kg and 10 mg/kg) treatment (n=5 mice per group). For graphs, data represent mean±SD; *, P<0.05; **, P<0.01; ***, P<0.001 & ****, P<0.0001.
Establishment of fresh patient derived xenograft (PDX) with tumors from the operating room. Human patient colon cancers were excised under standard sterile conditions. Initially, tumor fragments were implanted subcutaneously within 30 min of patient surgery over the right and left upper and lower flanks in nude mice. Subcutaneous tumors were allowed to grow for 2-4 weeks until large enough to supply adequate tumor for orthotopic implantation for PDOX models.

[6] = Blood urea nitrogen (BUN) toxicity measurement; parameters: species or system mice; details: mouse, in vivo
From the text: Data are expressed as means±SEM (n=5 mice/group).

[7] = tested on: SW620 cells xenograft tumors; test: SW620 xenograft tumors; type: in vivo, athymic mice
Experimental: SW620 cells were injected into dorsal flanks of athymic mice to form xenograft tumors. PDS-0330 was injected (5 and 10 mg/kg) when tumors became palpable. Effect on tumor volume and size was determined in time-dependent manner.
The development of flank xenograft tumors in claudin-1 overexpressed SW620 cells injected nude mice was examined between vehicle and PDS-0330 (5 mg/kg and 10 mg/kg) treatment (n=5 mice per group). Representative images of tumor containing mice from the vehicle and PDS-0330 (10 mg/kg).

SW480claudin-1 cells [8] = test: Soft agar colony formation assay; type: cell-based
From the text: To this end, a library of molecules was synthesized in order to develop an initial SAR evaluation. The first compounds tested eliminated the acylated (thio) urea as well as the napthyl group and evaluated just the urea/phenyl compounds (Compounds 1-6). The methoxy group of the naphthalene ring system was needed when the benzimidazole group was present (16 vs. Compound 8). […] The result of metabolic stability was expressed as the percentage of drug remaining at each time. […] To further determine the effect of PDS-0330 on p-Src expression and association, cells were treated with Compound 1, 16 and PDS-0330. Expression and association with p-Src was unaffected with Compound 1 (negative control). The specificity of PDS-0330 for CLDN1 was further confirmed by treating SW480^CLDN1, HCT116^CLDN2 (overexpressing another tight junction protein) or normal IEC-6 cells with PDS-0330 (FIG. 12).

For COc1cc2ccccc2cc1C(=O)NC(=S)Nc1ccc(-c2nc3ccccc3[nH]2)cc1 [Compound 16], the “combination effect with 5FU” value [1] was “significant synergy; also recorded: synergistic effect in inhibition of cell growth”, the primary metabolites identified [2] was “acetylation and hydroxylation with subsequent glucuronidation” and the drug remaining ([2]; after 60 minutes, phase I and II metabolism) was 30%. For the same compound, the “effect on HCT116 cells” value [3] was “remained unaffected”.
With O=C(NC(=S)Nc1ccc(-c2nc3ccccc3o2)cc1)c1ccc2ccccc2c1 [PDS-0330] the “percent cell survival compared with dasatinib” value (SW480claudin-1 cells [4]) was “significantly decreased percent cell survival more than dasatinib; also recorded: more effective in inhibiting cell survival”, the tumor formation [5] was “inhibits tumor formation” and the “cytotoxic effect by blood urea nitrogen (BUN)” value [6] was “no cytotoxic effect in mice”. The tumor size ([7]; 5 and 10 mg/kg) was “reduces tumor size in mice”, the tumor weight ([7]; mouse, in vivo) was “significantly inhibited tumor weight” and the “effect on soft agar colony formation” value (SW480claudin-1 cells [8]) was “significantly inhibited”.
